Assay: Plasma pharmacokinetics of the parent compound after a single oral dose of prodrug
Type: in vivo
Conditions: single oral dose 10 mg/kg, fasted male Sprague Dawley rats; plasma analyzed for the parent compound; study duration 8 h
Method in brief: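 Three male Sprague Dawley rats, housed in metabolic cages and fasted about 15 hours, were weighed and received one oral gavage dose of 10 mg/kg as a solution in water or water/propylene glycol. Blood (approximately 500 μL) went into heparin tubes at set timepoints up to the study duration. Plasma was separated by centrifugation at 14,000 rpm for 3 min at 4° C, stored below −70° C, and assayed for the parent compound.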

AUC0-last hour (area under the curve) | Compound
A (A = 0-1,000 ng/mL) | C=Cc1cc(C(=O)Nc2ccc(C(=N)NC(=O)OCCC(=O)O)cc2)c(-c2ccc(C(=O)NCC3CC3)nc2C(=O)OC(C)OC(=O)OC(C)C)cc1OC (stereo not shown) [Compound 71a, 3-((((4-(2-(6-((cyclopropylmethyl)carbamoyl)-2-((1-((isopropoxycarbonyl)oxy)ethoxy)carbonyl)pyridin-3-yl)-4-methoxy-5-vinylbenzamido)phenyl)(imino)methyl)carbamoyl)oxy)propanoic acid]
B (B = 1,001-10,000 ng/mL) | C=Cc1cc(C(=O)Nc2ccc(C(=N)NC(=O)OCCCCCC)cc2)c(-c2ccc(C(=O)NCC3CC3)nc2C(=O)OCOC(=O)OC(C)C)cc1OC [Compound 72a, ((isopropoxycarbonyl)oxy)methyl 6-((cyclopropylmethyl)carbamoyl)-3-(2-((4-(N-((hexyloxy)carbonyl)carbamimidoyl)phenyl)carbamoyl)-5-methoxy-4-vinylphenyl)picolinate]
A (A = 0-1,000 ng/mL) | C=Cc1cc(C(=O)Nc2ccc(C(=N)NC(=O)OC[C@@H]3C[C@@H](O)CC(=O)O3)cc2)c(-c2ccc(C(=O)NCC3CC3)nc2C(=O)OC(C)OC(=O)C(C)C)cc1OC (stereo partly drawn) [Compound 73d, 1-(isobutyryloxy)ethyl 6-((cyclopropylmethyl)carbamoyl)-3-(2-((4-(N-((((2S,4R)-4-hydroxy-6-oxotetrahydro-2H-pyran-2-yl)methoxy)carbonyl)carbamimidoyl)phenyl)carbamoyl)-5-methoxy-4-vinylphenyl)picolinate]
B (B = 1,001-10,000 ng/mL) | C=Cc1cc(C(=O)Nc2ccc(C(=N)NC(=O)OCOC(=O)[C@@H](N)C(C)C)cc2)c(-c2ccc(C(=O)NCC3CC3)nc2C(=O)OCOC(=O)[C@@H](N)C(C)C)cc1OC [Compound 74e, (((S)-2-amino-3-methylbutanoyl)oxy)methyl 3-(2-((4-(N—(((((S)-2-amino-3-methylbutanoyl)oxy)methoxy)carbonyl)carbamimidoyl)phenyl)carbamoyl)-5-methoxy-4-vinylphenyl)-6-((cyclopropylmethyl)carbamoyl)picolinate]
B (B = 1,001-10,000 ng/mL) | C=Cc1cc(C(=O)Nc2ccc(C(=N)NC(=O)OCCN3CCOCC3)cc2)c(-c2ccc(C(=O)NCC3CC3)nc2C(=O)OC(C)OC(=O)C(C)C)cc1OC (stereo not shown) [Compound 75c, 1-(isobutyryloxy)ethyl 6-((cyclopropylmethyl)carbamoyl)-3-(5-methoxy-2-((4-(N-((2-morpholinoethoxy)carbonyl)carbamimidoyl)phenyl)carbamoyl)-4-vinylphenyl)picolinate]
B (B = 1,001-10,000 ng/mL) | C=Cc1cc(C(=O)Nc2ccc(C(=N)NC(=O)OCC3COC(C)(C)O3)cc2)c(-c2ccc(C(=O)NCC3CC3)nc2C(=O)OC(C)OC(=O)OC(C)C)cc1OC (stereo not shown) [Compound 77c, 1-((isopropoxycarbonyl)oxy)ethyl 6-((cyclopropylmethyl)carbamoyl)-3-(2-((4-(N-(((2,2-dimethyl-1,3-dioxolan-4-yl)methoxy)carbonyl)carbamimidoyl)phenyl)carbamoyl)-5-methoxy-4-vinylphenyl)picolinate]
C (C >10,000 ng/mL) | C=Cc1cc(C(=O)Nc2ccc(C(=N)NC(=O)OCCOCC)cc2)c(-c2ccc(C(=O)NCC3CC3)nc2C(=O)OC(C)OC(=O)C(C)C)cc1OC (stereo not shown) [Compound 80c, 1-(isobutyryloxy)ethyl 6-((cyclopropylmethyl)carbamoyl)-3-(2-((4-(N-((2-ethoxyethoxy)carbonyl)carbamimidoyl)phenyl)carbamoyl)-5-methoxy-4-vinylphenyl)picolinate]
A (A = 0-1,000 ng/mL) | C=Cc1cc(C(=O)Nc2ccc(C(=N)NC(=O)OCCCCCC)cc2)c(-c2ccc(C(=O)NCC3CC3)nc2C(=O)OC(C)OC(=O)NC(C)C)cc1OC (stereo not shown) [Compound 81d, 1-((isopropylcarbamoyl)oxy)ethyl 6-((cyclopropylmethyl)carbamoyl)-3-(2-((4-(N-((hexyloxy)carbonyl)carbamimidoyl)phenyl)carbamoyl)-5-methoxy-4-vinylphenyl)picolinate]
B (B = 1,001-10,000 ng/mL) | C=Cc1cc(C(=O)Nc2ccc(C(=N)NC(=O)OCCOCCC)cc2)c(-c2ccc(C(=O)NCC3CC3)nc2C(=O)OC(C)OC(=O)OC(C)C)cc1OC (stereo not shown) [Compound 83c, 1-((isopropoxycarbonyl)oxy)ethyl 6-((cyclopropylmethyl)carbamoyl)-3-(5-methoxy-2-((4-(N-((2-propoxyethoxy)carbonyl)carbamimidoyl)phenyl)carbamoyl)-4-vinylphenyl)picolinate]
A (A = 0-1,000 ng/mL) | C=Cc1cc(C(=O)Nc2ccc(C(=N)NC(=O)OCC(O)CO)cc2)c(-c2ccc(C(=O)NCC3CC3)nc2C(=O)OC(C)OC(=O)OC(C)C)cc1OC (stereo not shown) [Compound 84a, 1-((isopropoxycarbonyl)oxy)ethyl 6-((cyclopropylmethyl)carbamoyl)-3-(2-((4-(N-((2,3-dihydroxypropoxy)carbonyl)carbamimidoyl)phenyl)carbamoyl)-5-methoxy-4-vinylphenyl)picolinate]
A (A = 0-1,000 ng/mL) | C=Cc1cc(C(=O)Nc2ccc(C(=N)NC(=O)OCCO)cc2)c(-c2ccc(C(=O)NCC3CC3)nc2C(=O)OC(C)OC(=O)C(C)C)cc1OC (stereo not shown) [Compound 85d, 1-(isobutyryloxy)ethyl 6-((cyclopropylmethyl)carbamoyl)-3-(2-((4-(N-((2-hydroxyethoxy)carbonyl)carbamimidoyl)phenyl)carbamoyl)-5-methoxy-4-vinylphenyl)picolinate]
B (B = 1,001-10,000 ng/mL) | C=Cc1cc(C(=O)Nc2ccc(C(=N)NC(=O)OCCCCCC)cc2)c(-c2ccc(C(=O)NCC3CC3)nc2C(=O)OC(C)OC(=O)OCC2COC(C)(C)O2)cc1OC (stereo not shown) [Compound 87a, 1-((((2,2-dimethyl-1,3-dioxolan-4-yl)methoxy)carbonyl)oxy)ethyl 6-((cyclopropylmethyl)carbamoyl)-3-(2-((4-(N-((hexyloxy)carbonyl)carbamimidoyl)phenyl)carbamoyl)-5-methoxy-4-vinylphenyl)picolinate]
A (A = 0-1,000 ng/mL) | C=Cc1cc(C(=O)Nc2ccc(C(=N)NC(=O)OCCCCCC)cc2)c(-c2ccc(C(=O)NCC3CC3)nc2C(=O)OC(C)OC(=O)N(C)C)cc1OC (stereo not shown) [Compound 90d, 1-((dimethylcarbamoyl)oxy)ethyl 6-((cyclopropylmethyl)carbamoyl)-3-(2-((4-(N-((hexyloxy)carbonyl)carbamimidoyl)phenyl)carbamoyl)-5-methoxy-4-vinylphenyl)picolinate]
A (A = 0-1,000 ng/mL) | C=Cc1cc(C(=O)Nc2ccc(C(=N)NC(=O)OCCCCCC)cc2)c(-c2ccc(C(=O)NCC3CC3)nc2C(=O)OC(C)OC(=O)N[C@H](C(=O)OCC)[C@@H](C)CC)cc1OC (stereo partly drawn) [Compound 91d, 1-((((2S,3S)-1-ethoxy-3-methyl-1-oxopentan-2-yl)carbamoyl)oxy)ethyl 6-((cyclopropylmethyl)carbamoyl)-3-(2-((4-(N-((hexyloxy)carbonyl)carbamimidoyl)phenyl)carbamoyl)-5-methoxy-4-vinylphenyl)picolinate]
A (A = 0-1,000 ng/mL) | C=Cc1cc(C(=O)Nc2ccc(C(=N)NC(=O)OCCC[C@H](O)C(=O)O)cc2)c(-c2ccc(C(=O)NCC3CC3)nc2C(=O)OC(C)OC(=O)C(C)C)cc1OC (stereo partly drawn) [Compound 92a, (2S)-5-((((4-(2-(6-((cyclopropylmethyl)carbamoyl)-2-((1-(isobutyryloxy)ethoxy)carbonyl)pyridin-3-yl)-4-methoxy-5-vinylbenzamido)phenyl)(imino)methyl)carbamoyl)oxy)-2-hydroxypentanoic acid]
B (B = 1,001-10,000 ng/mL) | C=Cc1cc(C(=O)Nc2ccc(C(=N)NC(=O)OCCCCCO)cc2)c(-c2ccc(C(=O)NCC3CC3)nc2C(=O)OC(C)OC(=O)C(C)C)cc1OC (stereo not shown) [Compound 94e, 1-(isobutyryloxy)ethyl 6-((cyclopropylmethyl)carbamoyl)-3-(2-((4-(N-(((5-hydroxypentyl)oxy)carbonyl)carbamimidoyl)phenyl)carbamoyl)-5-methoxy-4-vinylphenyl)picolinate]
B (B = 1,001-10,000 ng/mL) | C=Cc1cc(C(=O)Nc2ccc(C(=N)NC(=O)OC(C)CO)cc2)c(-c2ccc(C(=O)NCC3CC3)nc2C(=O)OC(C)OC(=O)OC(C)C)cc1OC (stereo not shown) [Compound 95e, 1-((isopropoxycarbonyl)oxy)ethyl 6-((cyclopropylmethyl)carbamoyl)-3-(2-((4-(N-(((1-hydroxypropan-2-yl)oxy)carbonyl)carbamimidoyl)phenyl)carbamoyl)-5-methoxy-4-vinylphenyl)picolinate]
A (A = 0-1,000 ng/mL) | C=Cc1cc(C(=O)Nc2ccc(C(=N)NC(=O)OCCN3CCOCC3)cc2)c(-c2ccc(C(=O)NCC3CC3)nc2C(=O)OC(C)OC(=O)[C@@H](N)C(C)C)cc1OC (stereo partly drawn) [Compound 96d, 1-(((S)-2-amino-3-methylbutanoyl)oxy)ethyl 6-((cyclopropylmethyl)carbamoyl)-3-(5-methoxy-2-((4-(N-((2-morpholinoethoxy)carbonyl)carbamimidoyl)phenyl)carbamoyl)-4-vinylphenyl)picolinate]
A (A = 0-1,000 ng/mL) | C=Cc1cc(C(=O)Nc2ccc(C(=N)NC(=O)OC(C)CN)cc2)c(-c2ccc(C(=O)NCC3CC3)nc2C(=O)OC(C)OC(=O)OC(C)C)cc1OC (stereo not shown) [Compound 97e, 1-((isopropoxycarbonyl)oxy)ethyl 3-(2-((4-(N-(((1-aminopropan-2-yl)oxy)carbonyl)carbamimidoyl)phenyl)carbamoyl)-5-methoxy-4-vinylphenyl)-6-((cyclopropylmethyl)carbamoyl)picolinate]
